Assay results: US20050197350A1, “Novel quinoline, tetrahydroquinazoline, and pyrimidine derivatives and methods of treatment related to the use thereof” (TAISHO PHARMACEUTICAL CO., LTD., priority 2003, published 2005)

tested on: MCH receptors; assay: MCH receptor activity class (method not given); conditions: class by percent of control at 10^-7 M or IC50

| SMILES | class |
| --- | --- |
| Cc1ccc2occ(CN[C@H]3CC[C@@H](Nc4nc5c(c(N(C)C)n4)CCCC5)CC3)c(=O)c2c1 [compound 1348] | 3 (Class 3 The value of percent of control at 10^−7 M was more than 60% or the value of IC50 was more than 200 nM.) |
| Cc1cc2occ(CN[C@H]3CC[C@@H](Nc4nc5c(c(N(C)C)n4)CCCC5)CC3)c(=O)c2cc1Cl [compound 1349] | 3 (Class 3 The value of percent of control at 10^−7 M was more than 60% or the value of IC50 was more than 200 nM.) |
| Cc1cc(C)c2occ(CN[C@H]3CC[C@@H](Nc4nc5c(c(N(C)C)n4)CCCC5)CC3)c(=O)c2c1 [compound 1350] | 2 (Class 2: The value of percent of control at 10^−7 M was from 40% to 60% or the value of IC′50 was from 50 nM to 200 nM.) |
| Cc1cc(CN[C@H]2CC[C@@H](Nc3nc4c(c(N(C)C)n3)CCCC4)CC2)c(C)n1-c1ccccc1 [compound 1351] | 3 (Class 3 The value of percent of control at 10^−7 M was more than 60% or the value of IC50 was more than 200 nM.) |
| CCCCC/C(=C\c1ccccc1)CN[C@H]1CC[C@@H](Nc2nc3c(c(N(C)C)n2)CCCC3)CC1 [compound 1353] | 3 (Class 3 The value of percent of control at 10^−7 M was more than 60% or the value of IC50 was more than 200 nM.) |
| COc1ccccc1/C=C/CN[C@H]1CC[C@@H](Nc2nc3c(c(N(C)C)n2)CCCC3)CC1 [compound 1354] | 3 (Class 3 The value of percent of control at 10^−7 M was more than 60% or the value of IC50 was more than 200 nM.) |
| CN(C)c1nc(N[C@H]2CC[C@@H](NCc3coc4ccc(Cl)cc4c3=O)CC2)nc2c1CCCC2 [compound 1355] | 3 (Class 3 The value of percent of control at 10^−7 M was more than 60% or the value of IC50 was more than 200 nM.) |
| CN(C)c1nc(N[C@H]2CC[C@@H](NCc3cncc(-c4ccc(F)cc4)c3)CC2)nc2c1CCCC2 [compound 1356] | 3 (Class 3 The value of percent of control at 10^−7 M was more than 60% or the value of IC50 was more than 200 nM.) |
| CCOC(=O)c1[nH]c2cc(Cl)cc(Cl)c2c1CN[C@H]1CC[C@@H](Nc2nc3c(c(N(C)C)n2)CCCC3)CC1 [compound 1357] | 1 (Class 1: The value of percent of control at 10^−7 M was less than 40% or the value of IC50 was less than 50 nM.) |
| COC(=O)c1ccccc1Sc1nc2sccn2c1CN[C@H]1CC[C@@H](Nc2nc3c(c(N(C)C)n2)CCCC3)CC1 [compound 1358] | 3 (Class 3 The value of percent of control at 10^−7 M was more than 60% or the value of IC50 was more than 200 nM.) |
| CN(C)c1nc(N[C@H]2CC[C@@H](NCc3c[nH]nc3-c3ccc(F)cc3)CC2)nc2c1CCCC2 [compound 1359] | 1 (Class 1: The value of percent of control at 10^−7 M was less than 40% or the value of IC50 was less than 50 nM.) |
| CSc1ccc(CN[C@H]2CC[C@@H](Nc3nc4c(c(N(C)C)n3)CCCC4)CC2)cc1 [compound 1360] | 3 (Class 3 The value of percent of control at 10^−7 M was more than 60% or the value of IC50 was more than 200 nM.) |
| CN(C)c1nc(N[C@H]2CC[C@@H](NCc3cccc4ccccc34)CC2)nc2c1CCCC2 [compound 1361] | 3 (Class 3 The value of percent of control at 10^−7 M was more than 60% or the value of IC50 was more than 200 nM.) |
| COc1cc(CN[C@H]2CC[C@@H](Nc3nc4c(c(N(C)C)n3)CCCC4)CC2)ccc1O [compound 1362] | 3 (Class 3 The value of percent of control at 10^−7 M was more than 60% or the value of IC50 was more than 200 nM.) |
| CN(C)c1nc(N[C@H]2CC[C@@H](NCc3ccc(F)c(Cl)c3)CC2)nc2c1CCCC2 [compound 1363] | 3 (Class 3 The value of percent of control at 10^−7 M was more than 60% or the value of IC50 was more than 200 nM.) |
| COc1cccc(OC)c1CNC[C@H]1CC[C@@H](Nc2nc3c(c(N(C)C)n2)CCCC3)CC1 [compound 1364] | 1 (Class 1: The value of percent of control at 10^−7 M was less than 40% or the value of IC50 was less than 50 nM.) |
| CCOc1ccccc1CNC[C@H]1CC[C@@H](Nc2nc3c(c(N(C)C)n2)CCCC3)CC1 [compound 1365] | 2 (Class 2: The value of percent of control at 10^−7 M was from 40% to 60% or the value of IC′50 was from 50 nM to 200 nM.) |
| CN(C)c1nc(N[C@H]2CC[C@@H](CNCc3c[nH]c4ccccc34)CC2)nc2c1CCCC2 [compound 1366] | 2 (Class 2: The value of percent of control at 10^−7 M was from 40% to 60% or the value of IC′50 was from 50 nM to 200 nM.) |
| COc1ccc(OC)c(CNC[C@H]2CC[C@@H](Nc3nc4c(c(N(C)C)n3)CCCC4)CC2)c1 [compound 1367] | 2 (Class 2: The value of percent of control at 10^−7 M was from 40% to 60% or the value of IC′50 was from 50 nM to 200 nM.) |
| COc1ccc(CNC[C@H]2CC[C@@H](Nc3nc4c(c(N(C)C)n3)CCCC4)CC2)c2ccccc12 [compound 1368] | 2 (Class 2: The value of percent of control at 10^−7 M was from 40% to 60% or the value of IC′50 was from 50 nM to 200 nM.) |
| COc1ccc2[nH]cc(CNC[C@H]3CC[C@@H](Nc4nc5c(c(N(C)C)n4)CCCC5)CC3)c2c1 [compound 1369] | 1 (Class 1: The value of percent of control at 10^−7 M was less than 40% or the value of IC50 was less than 50 nM.) |

| SMILES | class |
| --- | --- |
| COc1ccc2ccccc2c1CNC[C@H]1CC[C@@H](Nc2nc3c(c(N(C)C)n2)CCCC3)CC1 [compound 1370] | 3 (Class 3 The value of percent of control at 10^−7 M was more than 60% or the value of IC50 was more than 200 nM.) |
| COc1cc(Br)cc(CNC[C@H]2CC[C@@H](Nc3nc4c(c(N(C)C)n3)CCCC4)CC2)c1O [compound 1371] | 2 (Class 2: The value of percent of control at 10^−7 M was from 40% to 60% or the value of IC′50 was from 50 nM to 200 nM.) |
| CN(C)c1nc(N[C@H]2CC[C@@H](CNCc3c[nH]c4ccc(Br)cc34)CC2)nc2c1CCCC2 [compound 1372] | 1 (Class 1: The value of percent of control at 10^−7 M was less than 40% or the value of IC50 was less than 50 nM.) |
| COc1ccc(CNC[C@H]2CC[C@@H](Nc3nc4c(c(N(C)C)n3)CCCC4)CC2)c(OC)c1 [compound 1373] | 3 (Class 3 The value of percent of control at 10^−7 M was more than 60% or the value of IC50 was more than 200 nM.) |
| COc1ccc(CNC[C@H]2CC[C@@H](Nc3nc4c(c(N(C)C)n3)CCCC4)CC2)c(OC)c1OC [compound 1374] | 3 (Class 3 The value of percent of control at 10^−7 M was more than 60% or the value of IC50 was more than 200 nM.) |
| COc1cc(CNC[C@H]2CC[C@@H](Nc3nc4c(c(N(C)C)n3)CCCC4)CC2)cc(OC)c1O [compound 1375] | 3 (Class 3 The value of percent of control at 10^−7 M was more than 60% or the value of IC50 was more than 200 nM.) |
| CCOc1cc(CNC[C@H]2CC[C@@H](Nc3nc4c(c(N(C)C)n3)CCCC4)CC2)ccc1OC [compound 1376] | 1 (Class 1: The value of percent of control at 10^−7 M was less than 40% or the value of IC50 was less than 50 nM.) |
| CN(C)c1nc(N[C@H]2CC[C@@H](CNCc3c[nH]nc3-c3ccc(C(F)(F)F)cc3)CC2)nc2c1CCCC2 [compound 1377] | 2 (Class 2: The value of percent of control at 10^−7 M was from 40% to 60% or the value of IC′50 was from 50 nM to 200 nM.) |
| COc1cc(CNC[C@H]2CC[C@@H](Nc3nc4c(c(N(C)C)n3)CCCC4)CC2)cc(OC)c1OC [compound 1378] | 2 (Class 2: The value of percent of control at 10^−7 M was from 40% to 60% or the value of IC′50 was from 50 nM to 200 nM.) |
| COc1cc(CNC[C@H]2CC[C@@H](Nc3nc4c(c(N(C)C)n3)CCCC4)CC2)cc(OC)c1 [compound 1380] | 2 (Class 2: The value of percent of control at 10^−7 M was from 40% to 60% or the value of IC′50 was from 50 nM to 200 nM.) |
| COc1cc(CNC[C@H]2CC[C@@H](Nc3nc4c(c(N(C)C)n3)CCCC4)CC2)cc(I)c1O [compound 1381] | 1 (Class 1: The value of percent of control at 10^−7 M was less than 40% or the value of IC50 was less than 50 nM.) |
| Cc1cc(CNC[C@H]2CC[C@@H](Nc3nc4c(c(N(C)C)n3)CCCC4)CC2)cc(C)c1O [compound 1382] | 2 (Class 2: The value of percent of control at 10^−7 M was from 40% to 60% or the value of IC′50 was from 50 nM to 200 nM.) |
| COc1ccc(CNC[C@H]2CC[C@@H](Nc3nc4c(c(N(C)C)n3)CCCC4)CC2)cc1 [compound 1383] | 3 (Class 3 The value of percent of control at 10^−7 M was more than 60% or the value of IC50 was more than 200 nM.) |
| CN(C)c1nc(N[C@H]2CC[C@@H](CNCc3ccc4c(c3)OCCO4)CC2)nc2c1CCCC2 [compound 1384] | 3 (Class 3 The value of percent of control at 10^−7 M was more than 60% or the value of IC50 was more than 200 nM.) |
| CN(C)c1nc(N[C@H]2CC[C@@H](CNCc3cccc(Br)c3)CC2)nc2c1CCCC2 [compound 1385] | 3 (Class 3 The value of percent of control at 10^−7 M was more than 60% or the value of IC50 was more than 200 nM.) |
| COc1cc(OC)c(CNC[C@H]2CC[C@@H](Nc3nc4c(c(N(C)C)n3)CCCC4)CC2)cc1Br [compound 1386] | 3 (Class 3 The value of percent of control at 10^−7 M was more than 60% or the value of IC50 was more than 200 nM.) |
| COc1ccc(Br)cc1CNC[C@H]1CC[C@@H](Nc2nc3c(c(N(C)C)n2)CCCC3)CC1 [compound 1387] | 3 (Class 3 The value of percent of control at 10^−7 M was more than 60% or the value of IC50 was more than 200 nM.) |
| CN(C)c1nc(N[C@H]2CC[C@@H](CNCc3ccc(O)cc3Cl)CC2)nc2c1CCCC2 [compound 1388] | 2 (Class 2: The value of percent of control at 10^−7 M was from 40% to 60% or the value of IC′50 was from 50 nM to 200 nM.) |
| CN(C)c1nc(N[C@H]2CC[C@@H](CNCc3ccccc3C#N)CC2)nc2c1CCCC2 [compound 1389] | 3 (Class 3 The value of percent of control at 10^−7 M was more than 60% or the value of IC50 was more than 200 nM.) |
| CN(C)c1nc(N[C@H]2CC[C@@H](CNCc3cccc(Cl)c3)CC2)nc2c1CCCC2 [compound 1390] | 3 (Class 3 The value of percent of control at 10^−7 M was more than 60% or the value of IC50 was more than 200 nM.) |
| CN(C)c1nc(N[C@H]2CC[C@@H](CNCc3ccc(Cl)cc3)CC2)nc2c1CCCC2 [compound 1391] | 3 (Class 3 The value of percent of control at 10^−7 M was more than 60% or the value of IC50 was more than 200 nM.) |
